Consider one compound from patent US20100086958A1, “NOVEL ENZYME” (priority 2008, published 2010).

Molecules are shown by their SMILES.

The test system of one assay is Bsp184FDH. In words: Inhibition studies of Bsp184FDH-catalysed formate oxidation. Format: biochemical, Burkholderia cenocepacia PC184. As to the method:
(§1) Inhibition of formate oxidation by Bsp383FDH or Bsp184FDH was performed in the presence of the following potential inhibitors: NaN3, NaNO2, KNO3, KNO2, KCN and iodoacetamide at 5 mM and 20 mM concentrations. In a typical procedure, 10 μL of enzyme, Bsp383FDH (0.022 mg/mL) or Bsp184FDH (0.020 mg/mL) was incubated in sodium phosphate buffer (50 mM, pH 7.0) containing 100 mM of formate (sodium formate) and 5 mM and 20 mM inhibitors concentrations for 5 minutes at room temperature. Reaction of formate oxidation was then initiated by addition of NADP in 5 mM final concentration. Absorbance at 340 nm due to NADPH formation was spectrophotometrically monitored using a microtiter plate reader. Absorbance was recorded at 10 seconds intervals for 10 minutes. Initial activities were then calculated using the linear part of the initial readings using at least 20 data points and used directly as relative activity values. Control experiments were also performed in the absence of the enzyme.

In the next assay the test system is Bsp383FDH. In words: Inhibition studies of Bsp383FDH-catalysed formate oxidation. The format is biochemical, Burkholderia sp. 383. As to the method: as §1

In the case of `O=C[O-].[Na+]` [Formate salt], in the assay with Bsp184FDH, the “inhibition of BcenFDH1” value is recorded as “does not inhibit”. Further, the “inhibition of BspFDH2” value in the assay with Bsp383FDH was “does not inhibit”.
